Data: ChEMBL document CHEMBL4376898, “Enhanced Activity against Multidrug-Resistant Bacteria through Coapplication of an Analogue of Tachyplesin I and an Inhibitor of the QseC/B Signaling Pathway” (J Med Chem, 2020)
≈ marks a conversion by molar mass, not a printed value. Calls of active or inactive are those of the source. No cut-off for these calls is given here.

Tests used:
L02 [1] = experiment: Cytotoxicity in human L02 cells assessed as reduction in cell viability at >64 ug/ml incubated for 48 hrs by resazurin dye based assay; conditions: l02, 48 h
[2] = Toxicity in human erythrocytes assessed as induction of hemolysis at 16 ug/ml incubated for 1 hr by spectrometry; format: cell-based, Erythrocyte; conditions: read-out: Activity
L02 [3] = experiment: Cytotoxicity in human L02 cells assessed as reduction in cell viability at <32 ug/ml incubated for 48 hrs by resazurin dye based assay; conditions: l02, 48 h
[4] = Stability in human plasma assessed as parent compound remaining at […] measured after 2 hrs by HPLC analysis; format: ADME, cell-free; conditions: read-out: Stability
[5] = Stability in human plasma assessed as parent compound remaining at […] measured after 6 hrs by HPLC analysis; format: ADME, cell-free; conditions: read-out: Stability
Erythrocyte = experiment: Toxicity in human erythrocytes assessed as induction of hemolysis at <50 ug/ml incubated for 1 hr by spectrometry; format: cell-based
Escherichia coli [6] = experiment: Antimicrobial activity against Escherichia coli K-12 assessed as inhibition of visible growth incubated for 18 hrs; format: functional; conditions: K-12, 18 h
Staphylococcus aureus [7] = experiment: Antimicrobial activity against Staphylococcus aureus ATCC 29213 assessed as inhibition of visible growth incubated for 18 hrs; format: functional; conditions: ATCC 29213, 18 h
Pseudomonas aeruginosa [8] = experiment: Antimicrobial activity against Pseudomonas aeruginosa BAA 2108 assessed as inhibition of visible growth incubated for 18 hrs; format: functional; conditions: BAA 2108, 18 h
Bacillus subtilis [9] = experiment: Bactericidal activity against Bacillus subtilis 168; format: functional
Klebsiella pneumoniae [10] = experiment: Antimicrobial activity against Klebsiella pneumoniae BAA 1144 assessed as inhibition of visible growth incubated for 18 hrs; format: functional; conditions: BAA 1144, 18 h
[11] = Bactericidal activity against Lysobacter enzymogenes YC36 with delta qseC mutant assessed as killing of bacterial cells at 2 ug/ml relative to control; format: functional
Enterococcus faecium [12] = experiment: Antimicrobial activity against Enterococcus […] ATCC 29212 assessed as inhibition of visible growth incubated for 18 hrs; format: functional; conditions: ATCC 29212, 18 h
Enterobacter cloacae = experiment: Antimicrobial activity against Enterobacter cloacae BAA 1143 assessed as inhibition of visible growth incubated for 18 hrs; format: functional; conditions: BAA 1143, 18 h
Staphylococcus aureus [13] = experiment: Bactericidal activity against Staphylococcus aureus ATCC 29213; format: functional
Acinetobacter baumannii [14] = experiment: Antimicrobial activity against Acinetobacter baumannii ATCC 19606 assessed as inhibition of visible growth incubated for 18 hrs; format: functional; conditions: ATCC 19606 = CIP 70.34 = JCM 6841, 18 h
Staphylococcus aureus [15] = experiment: Antimicrobial activity against Staphylococcus aureus BAA 41 assessed as inhibition of visible growth incubated for 18 hrs; format: functional; conditions: BAA 41, 18 h
Escherichia coli [16] = experiment: Bactericidal activity against Escherichia coli K-12; format: functional
Pseudomonas aeruginosa [17] = experiment: Bactericidal activity against Pseudomonas aeruginosa ATCC 27853; format: functional
Klebsiella pneumoniae [18] = experiment: Antimicrobial activity against Klebsiella pneumoniae BAA 2470 assessed as inhibition of visible growth incubated for 18 hrs; format: functional; conditions: BAA 2470, 18 h
[19] = Antimicrobial activity against Lysobacter enzymogenes YC36 assessed as inhibition of visible growth measured after 7th generation exposure to compound by continuous repeated transfer assay (reference value: 4 ug/ml); format: functional
Pseudomonas aeruginosa [20] = experiment: Antimicrobial activity against Pseudomonas aeruginosa ATCC 27853 assessed as inhibition of visible growth incubated for 18 hrs; format: functional; conditions: ATCC 27853, 18 h
Staphylococcus aureus [21] = experiment: Antimicrobial activity against Staphylococcus aureus BAA 44 assessed as inhibition of visible growth incubated for 18 hrs; format: functional; conditions: BAA 44, 18 h
Escherichia coli [22] = experiment: Antimicrobial activity against Escherichia coli BAA 2469 assessed as inhibition of visible growth incubated for 18 hrs; format: functional; conditions: BAA 2469, 18 h
Acinetobacter baumannii [23] = experiment: Bactericidal activity against Acinetobacter baumannii ATCC 19606; format: functional; conditions: ATCC 19606 = CIP 70.34 = JCM 6841
Enterococcus faecium [24] = experiment: Bactericidal activity against Enterococcus […] ATCC 29212; format: functional
Bacillus subtilis [25] = experiment: Antimicrobial activity against Bacillus subtilis 168 assessed as inhibition of visible growth incubated for 18 hrs; format: functional; conditions: Bacillus subtilis, 168, 18 h
Escherichia coli [26] = experiment: Antimicrobial activity against Escherichia coli ATCC 25923 assessed as inhibition of visible growth incubated for 18 hrs; format: functional; conditions: ATCC 25923, 18 h
[27] = Antimicrobial activity against Lysobacter enzymogenes YC36 assessed as inhibition of visible growth measured after 7th generation exposure to compound by continuous repeated transfer assay relative to before passage; format: functional
[28] = Antimicrobial activity against Lysobacter enzymogenes YC36 assessed as inhibition of visible growth measured after 7th generation exposure to compound by continuous repeated transfer assay (reference value: 8 ug/ml); format: functional
[29] = Bactericidal activity against Lysobacter enzymogenes YC36 with delta qseB mutant assessed as killing of bacterial cells at 2 ug/ml relative to control; format: functional
[30] = Bactericidal activity against Lysobacter enzymogenes YC36; format: functional
Shigella flexneri = experiment: Bactericidal activity against Shigella flexneri ATCC 29903; format: functional
Lysobacter enzymogenes [31] = experiment: Bactericidal activity against Lysobacter enzymogenes YC36 at 2 ug/ml in presence of 5 pM QseC inhibitor LED209; format: functional
Lysobacter enzymogenes [32] = experiment: Bactericidal activity against Lysobacter enzymogenes YC36 with delta qseB mutant; format: functional
Lysobacter enzymogenes [33] = experiment: Induction of drug efflux pumps gene expression in Lysobacter enzymogenes YC36 assessed as increase in yceL expression at 2 ug/ml by genome-wide transcription profiling assay; format: functional
[34] = tested on: Stenotrophomonas maltophilia; experiment: Bactericidal activity against Stenotrophomonas maltophilia at 2 ug/ml in presence of 5 pM QseC inhibitor LED209; format: functional, organism-based
Lysobacter enzymogenes [35] = experiment: Antimicrobial activity against Lysobacter enzymogenes YC36 assessed as inhibition of visible growth incubated for 18 hrs; format: functional
Lysobacter enzymogenes [36] = experiment: Bactericidal activity against Lysobacter enzymogenes YC36 with delta qseC mutant; format: functional
Lysobacter enzymogenes [37] = experiment: Induction of drug efflux pumps gene expression in Lysobacter enzymogenes YC36 with delta qseB mutant at 2 ug/ml by genome-wide transcription profiling assay; format: functional
Lysobacter enzymogenes [38] = experiment: Induction of bacterial cell membrane leakage in Lysobacter enzymogenes YC36 assessed as induction of serious depressions with leakage of intracellular contents surrounding bacteria by atomic force microscopy; format: functional, cell-based
Lysobacter enzymogenes [39] = experiment: Bactericidal activity against Lysobacter enzymogenes YC36 at 10 ug/ml; format: functional
Lysobacter enzymogenes [40] = experiment: Induction of drug efflux pumps gene expression in Lysobacter enzymogenes YC36 assessed as increase in ftsX expression at 2 ug/ml by genome-wide transcription profiling assay; format: functional
Lysobacter enzymogenes [41] = experiment: Induction of drug efflux pumps gene expression in Lysobacter enzymogenes YC36 assessed as increase in czcB expression at 2 ug/ml by genome-wide transcription profiling assay; format: functional
Lysobacter enzymogenes [42] = experiment: Induction of drug efflux pumps gene expression in Lysobacter enzymogenes YC36 assessed as increase in nodT expression at 2 ug/ml by genome-wide transcription profiling assay; format: functional
Lysobacter enzymogenes [43] = experiment: Bactericidal activity against Lysobacter enzymogenes YC36 at 4 ug/ml; format: functional
Lipid bilayer = experiment: Induction of membrane lysis in LUVs composed of Escherichia coli lipid extract filled with 5-carboxyfluorescein incubated in dark for 20 mins by fluorescence based assay
Lysobacter enzymogenes [44] = experiment: Induction of drug efflux pumps gene expression in Lysobacter enzymogenes YC36 assessed as increase in QseB expression at 2 ug/ml by genome-wide transcription profiling assay; format: functional
[45] = tested on: Pseudoalteromonas antarctica; experiment: Bactericidal activity against Pseudoalteromonas antarctica at 2 ug/ml in presence of 5 pM QseC inhibitor LED209; format: functional, organism-based
Lysobacter enzymogenes [46] = experiment: Induction of drug efflux pumps gene expression in Lysobacter enzymogenes YC36 assessed as increase in QseC expression at 2 ug/ml by genome-wide transcription profiling assay; format: functional

CC[C@@H](C)[C@H]1NC(=O)CNC(=O)[C@@H](CCCNC(=N)N)NC(=O)[C@@H](Cc2ccc(O)cc2)NC(=O)[C@H]2CSSC[C@@H](NC1=O)C(=O)N[C@H](Cc1ccc(O)cc1)C(=O)N[C@H](CCCNC(=N)N)C(=O)N[C@H](CCCNC(=N)N)C(=O)N[C@@H](C(=O)N[C@H](CCCNC(=N)N)C(N)=O)CSSC[C@@H](NC(=O)[C@@H](Cc1c[nH]c3ccccc13)NC(=O)[C@H](N)CCCCN)C(=O)N[C@H](Cc1ccccc1)C(=O)N[C@H](CCCNC(=N)N)C(=O)N[C@H](C(C)C)C(=O)N2 [listing 1 of 2 here]
Activity (L02 [1]): Toxic | hemolysis at 1 h, 16 ug/ml [2]: 10% | Activity (L02 [3]): Non-Toxic | remaining at 2 h [4]: > 80% | remaining at 6 h [5]: 20% | Activity (Erythrocyte): Toxic

CC[C@@H](C)[C@H]1NC(=O)CNC(=O)[C@@H](CCCNC(=N)N)NC(=O)[C@@H](Cc2ccc(O)cc2)NC(=O)[C@H]2CSSC[C@@H](NC1=O)C(=O)N[C@H](Cc1ccc(O)cc1)C(=O)N[C@H](CCCNC(=N)N)C(=O)N[C@H](CCCNC(=N)N)C(=O)N[C@@H](C(=O)N[C@H](CCCNC(=N)N)C(N)=O)CSSC[C@@H](NC(=O)[C@@H](Cc1c[nH]c3ccccc13)NC(=O)[C@H](N)CCCCN)C(=O)N[C@H](Cc1ccccc1)C(=O)N[C@H](CCCNC(=N)N)C(=O)N[C@H](C(C)C)C(=O)N2 [listing 2 of 2 here]
MIC (Escherichia coli [6]): 8 µg/mL (≈ 3.53 µM) | MIC (Staphylococcus aureus [7]): 8 µg/mL (≈ 3.53 µM) | MIC (Pseudomonas aeruginosa [8]): 8 µg/mL (≈ 3.53 µM) | MBC (Bacillus subtilis [9]): 16 to 64 µg/mL (≈ 7.07 to 28.3 µM) | MIC (Klebsiella pneumoniae [10]): 16 µg/mL (≈ 7.07 µM) | Activity [11]: <=100% | MIC (Enterococcus faecium [12]): 4 µg/mL (≈ 1.77 µM) | MIC (Enterobacter cloacae): 8 µg/mL (≈ 3.53 µM) | MBC (Staphylococcus aureus [13]): 16 to 64 µg/mL (≈ 7.07 to 28.3 µM) | MIC (Acinetobacter baumannii [14]): 8 µg/mL (≈ 3.53 µM) | MIC (Staphylococcus aureus [15]): 4 µg/mL (≈ 1.77 µM) | MBC (Escherichia coli [16]): 16 to 64 µg/mL (≈ 7.07 to 28.3 µM) | MBC (Pseudomonas aeruginosa [17]): 16 to 64 µg/mL (≈ 7.07 to 28.3 µM) | MIC (Klebsiella pneumoniae [18]): 16 µg/mL (≈ 7.07 µM) | MIC [19]: 16 µg/mL (≈ 7.07 µM) | MIC (Pseudomonas aeruginosa [20]): 8 to 16 µg/mL (≈ 3.53 to 7.07 µM) | MIC (Staphylococcus aureus [21]): 4 µg/mL (≈ 1.77 µM) | MIC (Escherichia coli [22]): 8 µg/mL (≈ 3.53 µM) | MBC (Acinetobacter baumannii [23]): 16 to 64 µg/mL (≈ 7.07 to 28.3 µM) | MBC (Enterococcus faecium [24]): 16 to 64 µg/mL (≈ 7.07 to 28.3 µM) | MIC (Bacillus subtilis [25]): 4 µg/mL (≈ 1.77 µM) | MIC (Escherichia coli [26]): 8 µg/mL (≈ 3.53 µM) | fold change (FC) [27]: 4 | MIC [28]: 16 µg/mL (≈ 7.07 µM) | Activity [29]: <=100% | MBC [30]: 16 to 64 µg/mL (≈ 7.07 to 28.3 µM) | MBC (Shigella flexneri): 16 to 64 µg/mL (≈ 7.07 to 28.3 µM)

CC[C@H](C)[C@H]1NC(=O)CNC(=O)[C@@H](CCCNC(=N)N)NC(=O)[C@@H](Cc2ccc(O)cc2)NC(=O)[C@H]2CSSC[C@@H](NC1=O)C(=O)N[C@H](Cc1ccc(O)cc1)C(=O)N[C@H](CCCNC(=N)N)C(=O)N[C@H](CCCNC(=N)N)C(=O)N[C@@H](C(=O)N[C@H](CCCNC(=N)N)C(N)=O)CSSC[C@@H](NC(=O)[C@@H](Cc1c[nH]c3ccccc13)NC(=O)[C@H](N)CCCCN)C(=O)N[C@H](Cc1ccccc1)C(=O)N[C@H](CCCNC(=N)N)C(=O)N[C@H](C(C)C)C(=O)N2
Activity (Lysobacter enzymogenes [31]): Active | Activity (Lysobacter enzymogenes [32]): Active | Activity (Lysobacter enzymogenes [33]): Active | Activity [34]: Active | Activity (Lysobacter enzymogenes [35]): Dose-dependent effect | Activity (Lysobacter enzymogenes [36]): Active | Activity (Lysobacter enzymogenes [37]): inactive | Activity (Lysobacter enzymogenes [38]): Active | Activity (Lysobacter enzymogenes [39]): inactive | Activity (Lysobacter enzymogenes [40]): Active | Activity (Lysobacter enzymogenes [41]): Active | Activity (Lysobacter enzymogenes [42]): Active | Activity (Lysobacter enzymogenes [43]): Active | Activity (Lipid bilayer): Dose-dependent effect | Activity (Lysobacter enzymogenes [44]): Active | Activity [45]: Active | Activity (Lysobacter enzymogenes [46]): Active
